Experimental data reported in patent US20230372433A1, “NANOPARTICLE FOR ANTI-CANCER PEPTIDES AND USES THEREOF” (KING'S COLLEGE LONDON, priority 2020, published 2023).

Columns and labels:
[1] = tested on: HMLER (human breast cancer bulk cell); assay: MTT cytotoxicity assay, HMLER; type: cell-based; settings: 72 hr, MTT; read-out: IC50 HMLER
[2] = tested on: HMLER-shEcad (human breast cancer stem cell); assay: MTT cytotoxicity assay, HMLER-shEcad; type: cell-based; settings: 72 hr, MTT; read-out: IC50 HMLER-shEcad
[3] = tested on: MCF-10A (human breast epithelial cell); assay: cells; settings: read-out: IC50 MCF-10A; 72 hr, MTT
Excerpt: HMLER (human mammary endothelial cancer cells), HMLER-shEcad (human mammary endothelial cancer stem cells), and MCF-10A (healthy human mammary endothelial) cells were maintained in Mammary Epithelial Cell Growth Medium (MEGM) with supplements and growth factors: bovine pituitary extract (BPE), hydrocortisone, human epidermal growth factor (hEGF), insulin, and gentamicin/amphotericin-B. HEK293T (human embryonic kidney cell), and U2OS (homo sapiens bone osteosarcoma) cells were maintained in Dulbecco's Modified Eagle's Medium (DMEM) with a final concentration of 10% fetal bovine serum. The cells were grown in T75 flask at 310 K in a humidified atmosphere containing 5% CO2.
The colourimetric MTT (3-(4,5-dimethylthiazol-2-yl)-2,5-diphenyltetrazolium bromide) assay was used to determine the toxicity of the anti-cancer peptides and conventional anti-cancer drugs. 5×10^3 cells were seeded in each well of a 96-well microplate. The cells were incubated overnight. Elevated concentrations of the compounds (0, 0.1, 0.2, 0.4, 0.8, 1.6, 3.1, 6.3, 12.5, 25, 50 and 100 μM) were added and incubated for 72 hr with a total volume 200 μL. The stock solutions of the compounds were prepared as 5 mM solutions in DMSO and diluted using media or in pure water. The final concentration of DMSO in each well was either 0.5% or 0% and this amount was present in the untreated control. After 72 hr, 20 μL of a 4 mg/mL solution of MTT in PBS was added to each well, and the plate was incubated for an additional 4 hr. The MEGM/MTT mixture was aspirated and 100 μL of DMSO was added to dissolve the resulting purple formazan crystals. The absorbance of the solutions in each well was read at 550 nm wavelength. Absorbance values were normalized to either DMSO-containing or non DMSO-containing control wells and plotted as concentration of test compound versus % cell viability. ICso values were interpolated from the resulting dose dependent curves.
The peptides were screened against several different human cell lines and their cytotoxicity were determined. Cell lines utilised include MCF-10A (human breast epithelial cell), HMLER (human breast cancer bulk cell), HMLER-shEcad (human breast cancer stem cell), HEK293T (human embryonic kidney cell), and U2OS (human bone osteosarcoma).

[4] = tested on: U2OS (human bone osteosarcoma); assay: MTT cytotoxicity assay, U2OS; type: cell-based; settings: 72 hr
[5] = tested on: HEK293T (human embryonic kidney cell); assay: MTT cytotoxicity assay, HEK293T; type: cell-based; settings: 72 hr, MTT; read-out: IC50 HEK293T
[6] = Tryptophan fluorescent binding assay, POPC vesicles; settings: 50 μM peptide, PBS pH 7.4
Protocol: (§1) In brief, 50 μM peptides were fixed and incubated with titrated POPC vesicles (black) or 3POPC/1POPG vesicles (grey) at concentrations of 0, 12.5, 25, 50, 100, 250, 500, 1000, 2500, and 5000 μM in phosphate buffered saline (1X, pH 7.4). The lipid concentration that causes 50% peptide binding was determined using a tryptophan fluorescent binding assay and the values are shown as lipid per peptide.
(§2) The lipids 1-palmitoyl-2-oleoyl-sn-glycero-3-phosphocholine (POPC), 1-palmitoyl-2-oleoyl-snglycero-3-phospho-(1′-rac-glycerol) (POPG) were purchased from Avanti Polar Lipids and dissolved in chloroform. Large unilamellar vesicles (LUVs) were produced by extrusion through 100 nm pore filter using an extruder and filters purchased from Avanti Polar Lipids.
(§3) Peptides (50 μM) and POPC/POPG LUVs (600 μM) were prepared in 10 mM phosphate buffer (pH 7.0). The solutions were incubated and measured after 60 minutes. Excitation was fixed at 280 nm (slit 9 nm) and emission was collected from 300 to 450 nm (slit 9 nm). The spectra were recorded using a Synergy H1 Hybrid Multi-Mode Reader (FIG. 3A) and Cytation™ 5 Cell Imaging Multi-Mode Reader (FIG. 2) from BioTek and were averaged over 3 scans.
(§4) Table 3 illustrates the lipid concentration-induced 50% peptide binding onto a liposome. 50 μM peptide was fixed and incubated with titrated lipid (POPC vesicles or 3POPC/1POPG vesicles) at concentrations of 0, 12.5, 25, 50, 100, 250, 500, 1000, 2500, and 5000 μM in phosphate buffered saline (1X, pH 7.4). The lipid concentration that causes 50% peptide binding was determined using tryptophan fluorescent binding assay and the values are shown as lipid per peptide. IN-terminus is free, C-terminus: —W—NH2.

[7] = Tryptophan fluorescent binding assay, 3POPC/1POPG vesicles; settings: 50 μM peptide, PBS pH 7.4
Protocol: as §1, §2, §3, §4

[8] = ANTS/DPX liposome leakage assay, POPC vesicles; type: biochemical; settings: 0.5 mM vesicles
Protocol: (§5) In brief, 0.5 mM POPC vesicles (grey) or POPC:POPG vesicles (ratio 3:1, black) were incubated with peptide concentrations of 0, 0.02, 0.04, 0.08, 0.16, 0.32, 0.64, 1.25, 2.5, 5, 10, and 20 μM in each A) hydrochloric acid-adjusted phosphate buffered saline (1X, pH 4.8) and B) phosphate buffered saline (1X, pH 7.4).
as §2
(§6) 5 mM ANTS (8-aminonaphthalene-1,3,6-trisulfonic acid, disodium salt) and 12.5 mM DPX (p-xylene-bis-pyridinium bromide) were entrapped in 0.1 μm diameter extruded vesicles with lipids. Gel filtration chromatography using a Sephadex G-100 (GE Healthcare Life Sciences Inc) was used to remove external free ANTS/DPX from LUVs with entrapped contents. LUVs were diluted to 0.5 mM and used to measure the leakage activity by addition of aliquots of peptides. Leakage was measured after 3 h incubation. 10% Triton was used as the positive control to measure the maximum leakage of the vesicle. Fluorescence emission spectra were recorded using excitation and emission wavelength of 350 nm and 510 nm for ANTS/DPX using a BioTek Synergy H1 Hybrid Multi-Mode Reader.
(§7) Table 4 illustrates peptide concentration-induced 50 ANTS/DPX liposome leakage. 0.5 mM POPC and 3POPC/1POPG vesicles were fixed and incubated with titrated peptide concentration (0, 0.02, 0.04, 0.08, 0.16, 0.32, 0.64, 1.25, 2.5, 5, 10, and 20 μM) each in phosphate buffered saline (1X, pH 7.4) and hydrochloric acid-adjusted phosphate buffered saline (1X, pH 4.8). The values are shown as lipid per peptide. IN-terminus is free, C-terminus: —W—NH2.

[9] = ANTS/DPX liposome leakage assay, 3POPC/1POPG vesicles; type: biochemical; settings: 0.5 mM vesicles
Protocol: as §5, §2, §6, §7

Sequence | IC50 [1] [µM] | IC50 [2] [µM] | IC50 [3] [µM] | IC50 [4] [µM] | IC50 [5] [µM] | Lipid Concentration-induced 50% Peptide Binding (L/P) POPC Vesicle [6] [L/P] | Lipid Concentration-induced 50% Peptide Binding (L/P) 3POPC/1POPG Vesicle [7] [L/P] | Peptide Concentration-induced 50% ANTS/DPX leakage at pH 4.8 (L/P) POPC Vesicle [8] [L/P] | Peptide Concentration-induced 50% ANTS/DPX leakage at pH 7.4 (L/P) POPC Vesicle [8] [L/P] | Peptide Concentration-induced 50% ANTS/DPX leakage at pH 4.8 (L/P) 3POPC/1POPG Vesicle [9] [L/P] | Peptide Concentration-induced 50% ANTS/DPX leakage at pH 7.4 (L/P) 3POPC/1POPG Vesicle [9] [L/P]
GLLDLLELLLHAAG [DEH] | 5.35 ± 1.91 | 3.6 ± 0.42 | 20.2 ± 6.72 | 36.5 ± 3.92 | 10.5 ± 4.67 | 0.75 | 1.50 | 63 | 620 | 193 | 548
GLLDLLHLLLEAAG [DHE] | 3.75 ± 0.92 | 2.8 ± 0.14 | 22.7 ± 4.31 | 17.2 ± 1.06 | 11.1 ± 1.91 | 1.00 | 0.72 | 58 | 566 | 469 | 581
GLLDLLHLLLKAAG [DHK] | 1.75 ± 0.49 | 1.02 ± 0.12 | 5.05 ± 1.34 | 20.4 ± 2.05 | 7.3 ± 0.42 | 0.20 | 0.38 | 47 | 747 | 183 | 469
GLLDLLKLLLEAAG [DKE] | 2.1 | 1.57 ± 0.33 | 4.75 ± 0.49 | 9.93 ± 0.25 | 7.8 ± 1.41 | 0.56 | 0.46 | 21 | 747 | 469 | 411
GLLDLLKLLLHAAG [DKH] | 3.45 ± 0.07 | 2.8 ± 0.28 | 7.05 ± 0.21 | 21.1 ± 3.01 | 6.15 ± 1.34 | 10.00 | 0.46 | 41 | 614 | 58 | 274
GLLDLLKLLLKAAG [DKK] | 1.95 ± 0.35 | 1.2 ± 0.14 | 2.57 ± 0.52 | 10.4 ± 1.7 | 3.4 ± 0.28 | 2.75 | 6.88 | 47 | 463 | 227 | 156
GLLELLHLLLKAAG [EHK] | 1.35 ± 0.35 | 0.71 ± 0.13 | 3.6 ± 0.99 | 25 | 5.35 ± 0.07 | 0.56 | 0.42 | 55 | 981 | 117 | 505
GLLELLKLLLEAAG [EKE] | 1.8 ± 0.28 | 1.3 ± 0.14 | 8.8 | 8 ± 0.71 | 5.15 ± 0.21 | 2.75 | 1.63 | 75 | 738 | 438 | 657
